Measured values from patent US20230233569A1 (Revolution Medicines, Inc., priority 2020, published 2023).
Values joined by “and” are separate entries in the source; they are usually repeats but may differ in a detail not shown here. Equal entries are not always repeated. Where two headings read alike, the source gives them in different places.

How the values were obtained:
NRAS G12C = NRAS G12C (Homo sapiens, UniProt P01111+P62937, G12C); test: Disruption of BRAF RBD interaction with Ras (FRET / MOA assay, with Cyclophilin A); format: biochemical; conditions: NRAS G12C; read-out: NRAS G12C FRET data IC50
NRAS G12C, sequence (P01111 whole entry G12C): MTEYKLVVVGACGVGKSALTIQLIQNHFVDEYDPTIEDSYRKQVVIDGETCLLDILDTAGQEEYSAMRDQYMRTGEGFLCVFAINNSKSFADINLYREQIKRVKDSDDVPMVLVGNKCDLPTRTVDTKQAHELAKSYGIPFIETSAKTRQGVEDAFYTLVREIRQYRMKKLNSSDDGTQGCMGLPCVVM
NRAS G12C, sequence (P62937 whole entry): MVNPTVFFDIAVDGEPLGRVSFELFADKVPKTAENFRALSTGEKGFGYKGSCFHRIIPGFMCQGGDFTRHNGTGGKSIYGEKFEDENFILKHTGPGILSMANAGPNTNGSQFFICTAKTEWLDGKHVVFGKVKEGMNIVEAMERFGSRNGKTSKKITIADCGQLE

KRAS G12D = KRAS G12D (Homo sapiens, UniProt P01116+P62937, G12D); test: as above; format: biochemical
KRAS G12D, sequence (P01116 1-169 isoform P01116-2 G12D limits assumed): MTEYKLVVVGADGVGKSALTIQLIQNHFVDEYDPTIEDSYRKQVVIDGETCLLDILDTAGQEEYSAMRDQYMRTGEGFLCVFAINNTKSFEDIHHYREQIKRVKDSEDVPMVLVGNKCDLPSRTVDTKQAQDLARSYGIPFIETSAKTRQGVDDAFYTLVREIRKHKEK
KRAS G12D, sequence (P62937 whole entry): as the sequence (P62937 whole entry) above
In short: (§1)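 IC50 values reflect loss of K-Ras binding to BRAF RBD, read as a lowered TR-FRET ratio compared with DMSO, driven by compound-mediated K-Ras:Cyclophilin A complex formation. Compound top dose 30 μM final, 3-fold steps, 3 h incubation at 25 °C before a 1.5 h antibody step.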

KRAS G12V = KRAS G12V (Homo sapiens, UniProt P01116+P62937, G12V); test: as above; format: biochemical
KRAS G12V, sequence (P01116 1-169 isoform P01116-2 G12V limits assumed): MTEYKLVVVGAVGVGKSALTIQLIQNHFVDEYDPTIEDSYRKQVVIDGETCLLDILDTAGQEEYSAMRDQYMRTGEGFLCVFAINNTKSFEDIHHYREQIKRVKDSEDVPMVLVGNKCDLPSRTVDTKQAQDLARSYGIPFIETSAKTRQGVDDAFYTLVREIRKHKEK
KRAS G12V, sequence (P62937 whole entry): as the sequence (P62937 whole entry) above
In short: as §1

KRAS G12C = KRAS G12C (Homo sapiens, UniProt P01116+P62937, G12C); test: as above; format: biochemical
KRAS G12C, sequence (P01116 1-169 isoform P01116-2 G12C): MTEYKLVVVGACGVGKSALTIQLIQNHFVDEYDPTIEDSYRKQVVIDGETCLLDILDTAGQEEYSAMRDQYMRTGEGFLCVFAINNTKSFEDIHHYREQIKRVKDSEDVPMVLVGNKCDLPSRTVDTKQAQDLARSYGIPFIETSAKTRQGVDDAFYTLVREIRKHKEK
KRAS G12C, sequence (P62937 whole entry): as the sequence (P62937 whole entry) above
In short: as §1

KRAS G13D = KRAS G13D (Homo sapiens, UniProt P01116+P62937, G13D); test: as above; format: biochemical
KRAS G13D, sequence (P01116 1-169 isoform P01116-2 G13D limits assumed): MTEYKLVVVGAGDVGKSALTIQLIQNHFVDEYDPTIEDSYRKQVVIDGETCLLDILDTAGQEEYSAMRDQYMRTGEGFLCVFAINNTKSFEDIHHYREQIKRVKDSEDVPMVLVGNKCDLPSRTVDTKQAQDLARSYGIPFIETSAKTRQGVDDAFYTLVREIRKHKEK
KRAS G13D, sequence (P62937 whole entry): as the sequence (P62937 whole entry) above
In short: as §1

KRAS G13C = KRAS G13C (Homo sapiens, UniProt P01116+P62937, G13C); test: as above; format: biochemical
KRAS G13C, sequence (P01116 1-169 isoform P01116-2 G13C): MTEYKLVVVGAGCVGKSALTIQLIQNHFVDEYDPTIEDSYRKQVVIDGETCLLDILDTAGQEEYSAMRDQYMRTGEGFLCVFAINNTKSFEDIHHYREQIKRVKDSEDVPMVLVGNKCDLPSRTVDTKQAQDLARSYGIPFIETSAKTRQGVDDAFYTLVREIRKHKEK
KRAS G13C, sequence (P62937 whole entry): as the sequence (P62937 whole entry) above
In short: as §1

KRAS WT = KRAS WT (Homo sapiens, UniProt P01116+P62937); test: as above; format: biochemical; conditions: KRAS WT; read-out: KRAS WT FRET data IC50
KRAS WT, sequence (P01116 1-169 isoform P01116-2 limits assumed): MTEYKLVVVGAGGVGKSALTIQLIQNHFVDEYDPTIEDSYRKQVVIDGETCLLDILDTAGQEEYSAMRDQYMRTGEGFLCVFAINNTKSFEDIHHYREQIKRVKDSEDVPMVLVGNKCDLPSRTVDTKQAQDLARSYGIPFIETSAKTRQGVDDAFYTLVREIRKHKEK
KRAS WT, sequence (P62937 whole entry): as the sequence (P62937 whole entry) above
In short: as §1

KRAS G12S = KRAS G12S (Homo sapiens, UniProt P01116+P62937, G12S); test: as above; format: biochemical; conditions: read-out: KRAS G12S FRET data, IC50
KRAS G12S, sequence (P01116 1-169 isoform P01116-2 G12S limits assumed): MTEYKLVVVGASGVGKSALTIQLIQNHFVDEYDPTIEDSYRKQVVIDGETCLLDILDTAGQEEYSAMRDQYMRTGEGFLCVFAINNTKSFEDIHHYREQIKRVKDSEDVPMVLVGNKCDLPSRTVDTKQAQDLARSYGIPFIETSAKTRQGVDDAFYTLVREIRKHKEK
KRAS G12S, sequence (P62937 whole entry): as the sequence (P62937 whole entry) above
In short: as §1

[1] = test system: K-Ras G12C (NCI-H358 cells); test: Potency assay: pERK (AlphaLISA SureFire or In-Cell Western); format: cell-based; conditions: Homo sapiens, NCI-H358
In short: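 NCI-H358 cells plated overnight, then treated 4 h at 37 °C with 10-point 3-fold DMSO dilutions (10 mM top stock), in duplicate. pERK1/2 read by AlphaLISA SureFire Ultra lysate assay or by In-Cell Western with DRAQ5 DNA stain. IC50 from 4-parameter sigmoidal fit of signal vs log concentration.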

[2] = read-out: KRAS G12D FRET data, IC50
[3] = KRAS G12V, read-out: KRAS G12V FRET data IC50
[4] = KRAS G12C, read-out: KRAS G12C FRET data IC50
[5] = KRAS G13D, read-out: KRAS G13D FRET data IC50
[6] = KRAS G13C, read-out: KRAS G13C FRET data IC50
[7] = H358 KRAS G12C, read-out: pERK EC50

IC50 (NRAS G12C) | IC50 (KRAS G12D; read-out: FRET G12D IC50) [nM] | IC50 (KRAS G12D; [2]) | IC50 (KRAS G12V; [3]) | IC50 (KRAS G12V; read-out: FRET G12V IC50) [nM] | IC50 (KRAS G12C; read-out: FRET G12C IC50) [nM] | IC50 (KRAS G12C; read-out: KRAS G12C FRET data, IC50) | IC50 (KRAS G13D; read-out: FRET G13D IC50) [nM] | IC50 (KRAS G13C; read-out: FRET G13C IC50) [nM] | IC50 (KRAS G13C; read-out: KRAS G13C FRET data, IC50) | IC50 (KRAS WT) | IC50 (KRAS G12S) | EC50 ([1]; read-out: H358 pERK EC50) [nM] | IC50 (KRAS G12C; [4]) [nM] | IC50 (KRAS G13D; [5]) [nM] | IC50 (KRAS G13C; [6]) [nM] | EC50 [1, 7] [nM] | SMILES
1000 to 10000 nM and 10 to 100 nM | 545 | 100 to 1000 nM and > 10000 nM | 1000 to 10000 nM and 10 to 100 nM | 43 | 29 | 1000 to 10000 nM and 10 to 100 nM | 160 | 99 | 1000 to 10000 nM and 10 to 100 nM | 1000 to 10000 nM and 10 to 100 nM | 1000 to 10000 nM and 10 to 100 nM | 18 |  |  |  |  | CCn1c(-c2cccnc2[C@H](C)OC)c2c3cc(ccc31)-c1cc(O)cc(c1)C[C@H](NC(=O)[C@H](C(C)C)N(C)C(=O)[C@H]1CCN(C(=O)OC)C1)C(=O)N1CCC[C@H](N1)C(=O)OCC(C)(C)C2 (atropisomer, axis not shown) [Example A3]
100 to 1000 nM |  | > 10000 nM | 1000 to 10000 nM |  |  |  |  |  |  | 1000 to 10000 nM | 1000 to 10000 nM |  | 100 to 1000 | 1000 to 10000 | 100 to 1000 | < 5000 | C=CC(=O)N1CC[C@]2(C1)OCN(C(=O)N(C)[C@H](C(=O)N[C@H]1Cc3cccc(n3)-c3ccc4c(c3)c(c(-c3cccnc3[C@H](C)OC)n4CC)CC(C)(C)COC(=O)[C@@H]3CCCN(N3)C1=O)C(C)C)C2=O (atropisomer, axis not shown) [Example A652]
< 10 nM |  | > 10000 nM | 1000 to 10000 nM |  |  |  |  |  |  | 1000 to 10000 nM | 1000 to 10000 nM |  | < 10 | > 10000 | 1000 to 10000 | < 5000 | CCn1c(-c2cccnc2[C@H](C)OC)c2c3cc(ccc31)-c1csc(n1)C[C@H](NC(=O)[C@H](COC1CN(C(=O)C#CC(C)(C)N(C)C)C1)OC)C(=O)N1CCC[C@H](N1)C(=O)OCC(C)(C)C2 (atropisomer, axis not shown) [Example A705]
100 to 1000 nM |  | > 10000 nM | 1000 to 10000 nM |  |  |  |  |  |  | 1000 to 10000 nM | 1000 to 10000 nM |  | 100 to 1000 | 1000 to 10000 | 100 to 1000 | < 5000 | C=CC(=O)N1CC(OC[C@H](C(=O)N[C@H]2Cc3cc(F)cc(c3)-c3ccc4c(c3)c(c(-c3cccnc3[C@H](C)OC)n4CC)CC(C)(C)COC(=O)[C@@H]3CCCN(N3)C2=O)C(C)C)C1 (atropisomer, axis not shown) [Example A725]
100 to 1000 nM |  | 1000 to 10000 nM | 100 to 1000 nM |  |  |  |  |  |  | 100 to 1000 nM | 100 to 1000 nM |  | 100 to 1000 | 1000 to 10000 | 100 to 1000 | < 5000 | C=CC(=O)N1CC[C@@H](N(C)C(=O)N(C)[C@H](C(=O)N[C@H]2Cc3nc(cs3)-c3ccc4c(c3)c(c(-c3cccnc3[C@H](C)OC)n4CC(F)(F)F)CC(C)(C)COC(=O)[C@@H]3CCCN(N3)C2=O)C(C)C)C1 (atropisomer, axis not shown) [Example A728]

SMILES | IC50 (NRAS G12C) | IC50 (KRAS G12D; read-out: FRET G12D IC50) [nM] | IC50 (KRAS G12D; [2]) | IC50 (KRAS G12V; [3]) | IC50 (KRAS G12V; read-out: FRET G12V IC50) [nM] | IC50 (KRAS G12C; read-out: FRET G12C IC50) [nM] | IC50 (KRAS G12C; read-out: KRAS G12C FRET data, IC50) | IC50 (KRAS G13D; read-out: FRET G13D IC50) [nM] | IC50 (KRAS G13C; read-out: FRET G13C IC50) [nM] | IC50 (KRAS G13C; read-out: KRAS G13C FRET data, IC50) | IC50 (KRAS WT) | IC50 (KRAS G12S) | EC50 ([1]; read-out: H358 pERK EC50) [nM] | IC50 (KRAS G12C; [4]) [nM] | IC50 (KRAS G13D; [5]) [nM] | IC50 (KRAS G13C; [6]) [nM] | EC50 [1, 7] [nM]
CCn1c(-c2cccnc2[C@H](C)OC)c2c3cc(ccc31)-c1csc(n1)C[C@H](NC(=O)[C@H](C(C)C)N(C)C(=O)N(C)C1CN(C(=O)/C=C/C(C)(C)O)C1)C(=O)N1CCC[C@H](N1)C(=O)OCC(C)(C)C2 (atropisomer, axis not shown) [Example A350] | 10 to 100 nM |  | 1000 to 10000 nM | 100 to 1000 nM |  |  |  |  |  |  | 100 to 1000 nM | 100 to 1000 nM |  | 10 to 100 | 100 to 1000 | 100 to 1000 | < 5000
CCn1c(-c2cccnc2[C@H](C)OC)c2c3cc(ccc31)-c1cccc(c1)C[C@H](NC(=O)[C@@H](COC1CN(C(=O)C#C[C@@H]3COCCN3C)C1)C(C)C)C(=O)N1CCC[C@H](N1)C(=O)OCC(C)(C)C2 (atropisomer, axis not shown) [Example A648] | 100 to 1000 nM |  | > 10000 nM | > 10000 nM |  |  |  |  |  |  | 1000 to 10000 nM | > 10000 nM |  | 100 to 1000 | > 10000 | 1000 to 10000 | < 5000
C=CC(=O)N1CC[C@H](C(=O)N(C)[C@H](C(=O)N[C@H]2Cc3nsc(n3)-c3ccc4c(c3)c(c(-c3cccnc3[C@H](C)OC)n4CC)CC(C)(C)COC(=O)[C@@H]3CCCN(N3)C2=O)C(C)C)C1 (atropisomer, axis not shown) [Example A694] | 100 to 1000 nM |  | 1000 to 10000 nM | 1000 to 10000 nM |  |  |  |  |  |  | 1000 to 10000 nM | 1000 to 10000 nM |  | 100 to 1000 | 1000 to 10000 | 100 to 1000 | < 5000
